Experimental data reported in ChEMBL document CHEMBL5465560, “Selectivity Literature for EUbOPEN Chemogenomic Library” (2024).
One block for each compound: values may come before it.

Assays:
[1] = biological target: Sodium-dependent noradrenaline transporter (Homo sapiens, UniProt P23975); experiment: Selectivity interaction (Eurofins CEREP Diversity Profile (receptors and ion channels)) EUB0000279b SLC6A2; conditions: at 10 µM
[2] = biological target: T1, Serine/threonine-protein kinase STK11 (Homo sapiens) (UniProt Q15831); experiment: Selectivity interaction (Kinase panel (literature)) EUB0001199aCl STK11; conditions: at 1 µM
T1 sequence (whole entry): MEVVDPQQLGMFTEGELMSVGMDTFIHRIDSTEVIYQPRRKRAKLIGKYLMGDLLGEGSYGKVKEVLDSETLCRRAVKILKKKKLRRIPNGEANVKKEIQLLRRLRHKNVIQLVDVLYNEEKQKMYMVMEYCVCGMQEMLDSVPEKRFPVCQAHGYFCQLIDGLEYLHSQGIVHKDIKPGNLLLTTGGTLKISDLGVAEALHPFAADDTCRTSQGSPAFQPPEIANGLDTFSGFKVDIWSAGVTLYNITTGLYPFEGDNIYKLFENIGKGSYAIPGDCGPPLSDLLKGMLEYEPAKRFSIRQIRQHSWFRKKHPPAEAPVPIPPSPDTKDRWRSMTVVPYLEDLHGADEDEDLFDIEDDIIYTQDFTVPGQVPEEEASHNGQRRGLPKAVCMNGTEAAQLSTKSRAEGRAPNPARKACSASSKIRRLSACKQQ

[3] = biological target: T2, Serine/threonine-protein kinase Nek9 (Homo sapiens) (UniProt Q8TD19); experiment: Selectivity interaction (KinomeScan (DiscoverX)) EUB0000655a NEK9; conditions: at 10 µM
T2 sequence (whole entry): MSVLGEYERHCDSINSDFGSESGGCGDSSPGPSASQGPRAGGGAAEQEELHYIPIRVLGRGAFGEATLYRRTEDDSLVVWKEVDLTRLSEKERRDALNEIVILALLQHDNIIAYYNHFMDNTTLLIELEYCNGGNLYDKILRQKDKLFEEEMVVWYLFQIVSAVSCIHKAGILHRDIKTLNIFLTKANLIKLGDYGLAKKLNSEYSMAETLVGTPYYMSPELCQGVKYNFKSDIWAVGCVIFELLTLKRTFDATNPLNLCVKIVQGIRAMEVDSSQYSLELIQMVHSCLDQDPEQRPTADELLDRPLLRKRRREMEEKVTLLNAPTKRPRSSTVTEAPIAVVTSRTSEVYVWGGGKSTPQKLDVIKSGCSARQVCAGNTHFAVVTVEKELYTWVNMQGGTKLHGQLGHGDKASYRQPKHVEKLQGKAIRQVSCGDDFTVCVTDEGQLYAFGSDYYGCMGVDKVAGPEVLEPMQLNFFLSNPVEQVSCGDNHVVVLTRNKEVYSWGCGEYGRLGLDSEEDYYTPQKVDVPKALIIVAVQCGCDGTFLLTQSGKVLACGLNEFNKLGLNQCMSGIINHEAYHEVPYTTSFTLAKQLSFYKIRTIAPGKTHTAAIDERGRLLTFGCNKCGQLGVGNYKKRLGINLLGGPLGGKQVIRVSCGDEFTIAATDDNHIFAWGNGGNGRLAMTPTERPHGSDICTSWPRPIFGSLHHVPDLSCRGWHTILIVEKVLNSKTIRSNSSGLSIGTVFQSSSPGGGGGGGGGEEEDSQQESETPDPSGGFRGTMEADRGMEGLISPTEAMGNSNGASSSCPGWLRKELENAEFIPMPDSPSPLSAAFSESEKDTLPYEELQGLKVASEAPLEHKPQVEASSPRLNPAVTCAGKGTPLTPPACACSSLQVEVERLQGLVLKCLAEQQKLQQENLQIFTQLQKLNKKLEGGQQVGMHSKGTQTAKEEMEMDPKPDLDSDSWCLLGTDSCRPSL

[4] = biological target: Dual specificity tyrosine-phosphorylation-regulated kinase 1B (Homo sapiens, UniProt Q9Y463); experiment: Selectivity interaction (KinomeScan (DiscoverX)) EUB0001619a DYRK1B; conditions: at 1 µM
[5] = biological target: Cyclin-dependent kinase 16 (Homo sapiens) (UniProt Q00536); experiment: Selectivity interaction (ActivX KiNativ screen (kinase selectivity in THP-1 cell lysates)) EUB0000639a CDK16; assay type: subcellular; conditions: lysate, at 0.04 µM
[6] = biological target: T3, Eukaryotic translation initiation factor 2-alpha kinase 3 (Homo sapiens) (UniProt Q9NZJ5); experiment: Selectivity interaction (ActivX KiNativ screen (kinase selectivity in THP-1 cell lysates)) EUB0000639a EIF2AK3; assay type: subcellular; conditions: lysate
T3 sequence (whole entry): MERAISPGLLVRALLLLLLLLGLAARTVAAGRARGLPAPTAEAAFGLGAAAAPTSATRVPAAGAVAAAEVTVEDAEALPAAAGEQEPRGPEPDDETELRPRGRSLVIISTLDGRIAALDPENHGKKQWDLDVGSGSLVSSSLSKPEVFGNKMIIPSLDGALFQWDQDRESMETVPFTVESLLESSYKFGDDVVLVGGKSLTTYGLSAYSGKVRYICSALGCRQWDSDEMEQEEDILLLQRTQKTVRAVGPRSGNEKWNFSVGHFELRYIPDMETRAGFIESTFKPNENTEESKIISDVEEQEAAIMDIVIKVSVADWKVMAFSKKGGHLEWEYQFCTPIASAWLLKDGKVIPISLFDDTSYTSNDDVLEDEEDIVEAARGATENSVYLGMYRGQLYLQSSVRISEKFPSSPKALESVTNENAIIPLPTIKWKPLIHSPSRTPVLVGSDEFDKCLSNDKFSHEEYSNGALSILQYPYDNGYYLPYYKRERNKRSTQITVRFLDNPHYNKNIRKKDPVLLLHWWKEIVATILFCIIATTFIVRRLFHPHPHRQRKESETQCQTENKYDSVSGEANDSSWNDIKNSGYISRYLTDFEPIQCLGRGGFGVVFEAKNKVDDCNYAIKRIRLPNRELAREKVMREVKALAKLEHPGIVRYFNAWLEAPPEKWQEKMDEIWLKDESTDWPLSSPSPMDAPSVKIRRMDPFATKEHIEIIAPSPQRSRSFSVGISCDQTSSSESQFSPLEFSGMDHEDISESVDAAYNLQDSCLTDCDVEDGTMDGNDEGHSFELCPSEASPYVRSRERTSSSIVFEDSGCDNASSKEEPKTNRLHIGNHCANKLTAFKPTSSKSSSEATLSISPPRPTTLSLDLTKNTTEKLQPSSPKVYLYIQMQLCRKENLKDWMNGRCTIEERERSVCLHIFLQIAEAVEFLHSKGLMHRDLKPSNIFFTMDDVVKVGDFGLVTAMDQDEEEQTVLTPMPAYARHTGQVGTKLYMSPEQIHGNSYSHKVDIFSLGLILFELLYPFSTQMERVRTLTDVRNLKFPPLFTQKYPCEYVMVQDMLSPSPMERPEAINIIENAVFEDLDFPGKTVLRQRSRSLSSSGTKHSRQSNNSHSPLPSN

[7] = biological target: Tyrosine-protein kinase ABL2 (Homo sapiens, UniProt P42684); experiment: Selectivity interaction (ActivX KiNativ screen (kinase selectivity in THP-1 cell lysates)) EUB0000639a ABL2; assay type: subcellular; conditions: lysate, at 5 µM
Sequence of Tyrosine-protein kinase ABL2 (P42684 whole entry): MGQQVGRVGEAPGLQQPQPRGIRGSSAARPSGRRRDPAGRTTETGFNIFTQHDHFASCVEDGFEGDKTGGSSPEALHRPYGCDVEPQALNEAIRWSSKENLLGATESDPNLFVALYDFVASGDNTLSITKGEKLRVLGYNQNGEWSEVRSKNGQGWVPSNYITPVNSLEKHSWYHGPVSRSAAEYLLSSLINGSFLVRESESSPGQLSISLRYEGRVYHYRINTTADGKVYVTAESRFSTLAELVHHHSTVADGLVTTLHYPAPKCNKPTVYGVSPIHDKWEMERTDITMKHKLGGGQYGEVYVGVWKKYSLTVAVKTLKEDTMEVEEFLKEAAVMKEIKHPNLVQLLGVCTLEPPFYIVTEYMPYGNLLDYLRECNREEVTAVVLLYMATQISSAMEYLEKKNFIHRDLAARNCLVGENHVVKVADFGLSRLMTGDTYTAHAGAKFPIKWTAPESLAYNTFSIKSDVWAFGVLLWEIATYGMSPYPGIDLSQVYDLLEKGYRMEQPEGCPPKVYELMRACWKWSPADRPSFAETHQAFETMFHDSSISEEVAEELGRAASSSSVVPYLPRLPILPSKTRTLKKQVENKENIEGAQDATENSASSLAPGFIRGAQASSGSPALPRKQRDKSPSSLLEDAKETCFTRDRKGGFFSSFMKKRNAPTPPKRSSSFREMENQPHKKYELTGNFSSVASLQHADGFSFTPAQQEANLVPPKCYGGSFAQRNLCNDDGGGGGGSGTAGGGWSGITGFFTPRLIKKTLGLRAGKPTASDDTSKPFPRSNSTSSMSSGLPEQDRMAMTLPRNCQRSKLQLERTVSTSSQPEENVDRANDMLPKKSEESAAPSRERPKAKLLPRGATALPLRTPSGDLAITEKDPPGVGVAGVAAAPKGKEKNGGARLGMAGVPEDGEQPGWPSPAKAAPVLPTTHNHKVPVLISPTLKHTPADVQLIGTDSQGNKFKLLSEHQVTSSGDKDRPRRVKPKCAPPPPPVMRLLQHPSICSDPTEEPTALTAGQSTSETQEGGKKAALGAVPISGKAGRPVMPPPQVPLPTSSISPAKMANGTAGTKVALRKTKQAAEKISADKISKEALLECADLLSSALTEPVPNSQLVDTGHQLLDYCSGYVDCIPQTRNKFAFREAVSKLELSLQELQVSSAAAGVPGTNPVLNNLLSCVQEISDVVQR

Sequence of Cyclin-dependent kinase 16 (Homo sapiens) (Q00536 whole entry): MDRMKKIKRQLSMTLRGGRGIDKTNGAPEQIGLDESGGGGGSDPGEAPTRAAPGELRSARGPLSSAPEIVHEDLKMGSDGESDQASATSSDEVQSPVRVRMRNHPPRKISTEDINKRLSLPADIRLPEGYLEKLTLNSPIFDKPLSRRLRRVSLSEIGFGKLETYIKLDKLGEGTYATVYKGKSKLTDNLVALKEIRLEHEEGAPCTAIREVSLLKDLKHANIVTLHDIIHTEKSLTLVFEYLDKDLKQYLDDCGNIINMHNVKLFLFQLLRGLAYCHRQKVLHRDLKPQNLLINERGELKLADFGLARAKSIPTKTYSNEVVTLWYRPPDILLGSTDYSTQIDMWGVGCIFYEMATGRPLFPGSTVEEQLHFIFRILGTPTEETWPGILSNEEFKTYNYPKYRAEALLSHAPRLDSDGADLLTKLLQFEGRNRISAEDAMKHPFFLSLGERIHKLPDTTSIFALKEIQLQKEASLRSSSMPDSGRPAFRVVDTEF
Sequence of Sodium-dependent noradrenaline transporter (P23975 whole entry): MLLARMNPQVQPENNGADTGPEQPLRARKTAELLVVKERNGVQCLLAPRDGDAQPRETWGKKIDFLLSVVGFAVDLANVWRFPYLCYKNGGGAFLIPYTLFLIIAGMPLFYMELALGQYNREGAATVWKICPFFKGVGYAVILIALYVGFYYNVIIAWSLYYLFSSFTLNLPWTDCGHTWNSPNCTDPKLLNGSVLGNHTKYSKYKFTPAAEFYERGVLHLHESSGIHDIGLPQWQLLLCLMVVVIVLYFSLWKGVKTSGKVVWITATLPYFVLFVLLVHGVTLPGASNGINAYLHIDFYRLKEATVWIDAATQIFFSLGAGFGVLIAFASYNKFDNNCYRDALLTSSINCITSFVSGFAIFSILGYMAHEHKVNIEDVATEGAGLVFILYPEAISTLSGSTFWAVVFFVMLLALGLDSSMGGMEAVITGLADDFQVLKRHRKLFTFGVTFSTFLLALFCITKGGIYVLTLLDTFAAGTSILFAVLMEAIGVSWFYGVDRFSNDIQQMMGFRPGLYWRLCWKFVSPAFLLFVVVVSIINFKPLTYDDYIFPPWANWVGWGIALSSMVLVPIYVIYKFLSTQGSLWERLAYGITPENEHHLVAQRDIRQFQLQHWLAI
Sequence of Dual specificity tyrosine-phosphorylation-regulated kinase 1B (Q9Y463 whole entry, looked up): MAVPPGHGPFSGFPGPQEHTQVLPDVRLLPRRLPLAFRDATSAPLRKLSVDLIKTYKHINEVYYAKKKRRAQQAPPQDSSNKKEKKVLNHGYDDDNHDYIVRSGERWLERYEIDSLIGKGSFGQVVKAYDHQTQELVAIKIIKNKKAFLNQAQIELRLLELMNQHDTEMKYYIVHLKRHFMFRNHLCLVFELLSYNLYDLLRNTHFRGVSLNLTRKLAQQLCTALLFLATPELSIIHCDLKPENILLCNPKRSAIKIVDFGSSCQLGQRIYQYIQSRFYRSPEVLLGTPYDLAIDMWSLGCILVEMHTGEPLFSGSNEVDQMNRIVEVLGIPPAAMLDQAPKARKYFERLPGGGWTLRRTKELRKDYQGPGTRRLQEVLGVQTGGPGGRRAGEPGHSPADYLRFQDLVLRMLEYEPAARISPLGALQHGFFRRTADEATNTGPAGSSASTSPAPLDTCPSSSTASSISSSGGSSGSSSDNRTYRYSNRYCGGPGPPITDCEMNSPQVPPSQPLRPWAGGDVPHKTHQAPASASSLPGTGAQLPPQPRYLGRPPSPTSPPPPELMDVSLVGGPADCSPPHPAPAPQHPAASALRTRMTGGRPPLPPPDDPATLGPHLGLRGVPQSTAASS

% of control [1]: 90%
Structure (SMILES): CC(=O)c1cc(-c2ccccc2OCC2CC2)c2ncccn12

% of inhibition [2]: 3%
Structure (SMILES): CN1Cc2nccc(-c3cn(C)nc3-c3ccc(F)cc3)c2C1=O

Structure (SMILES): CN(C)CCOc1ccc(-c2nc(-c3ccncc3)c(-c3ccc4c(c3)CC/C4=N\O)[nH]2)cc1
% of control [3]: 100%

Structure (SMILES): N#Cc1cccc(-c2c[nH]c3ncnc(N4CCOCC4)c23)c1
% of control [4]: 70%

% of inhibition [5]: 0.5%
% of inhibition ([6]; at 0.01 µM): 5.1%
% of inhibition ([6]; at 0.04 µM): -15.8%
% of inhibition ([6]; at 0.2 µM): -12.3%
% of inhibition ([6]; at 1 µM): -2.3%
% of inhibition ([6]; at 5 µM): -20.8%
% of inhibition [7]: 30.7%
Structure (SMILES): CC[C@@H]1[C@H](F)C(=O)N[C@@H]1COc1nccc2cc(C(N)=O)c(OC)cc12 [ZIMLOVISERTIB]
